From patent publication US12534469B2 (CHILDREN'S HOSPITAL MEDICAL CENTER, priority 2020, dated 2026) come the findings set out here.

Usually IC50 stands for the concentration needed to halve the response being measured.

Molecules are shown by their SMILES.

Holding throughout (format): biochemical
The target of experiment [1] is T1, FLT3 (Homo sapiens, UniProt P36888).
T1 construct: purchased Reaction Biology (RBC HotSpot Kinase Assay)
T1 sequence (P36888 564-958 limits assumed): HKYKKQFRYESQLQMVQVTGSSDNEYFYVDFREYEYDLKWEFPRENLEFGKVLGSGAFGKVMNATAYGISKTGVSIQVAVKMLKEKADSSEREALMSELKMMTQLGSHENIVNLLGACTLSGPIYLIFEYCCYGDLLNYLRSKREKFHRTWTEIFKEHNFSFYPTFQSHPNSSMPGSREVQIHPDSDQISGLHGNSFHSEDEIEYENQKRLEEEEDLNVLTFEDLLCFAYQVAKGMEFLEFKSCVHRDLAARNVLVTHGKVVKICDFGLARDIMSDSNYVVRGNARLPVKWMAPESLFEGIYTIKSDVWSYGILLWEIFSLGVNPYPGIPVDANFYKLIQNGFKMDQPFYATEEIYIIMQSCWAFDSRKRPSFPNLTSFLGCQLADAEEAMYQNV
As to the kind of experiment: RBC HotSpot Kinase Assay, FLT3. The source says: (§1) This assay uses the isolated kinase enzyme. This assay is very useful for determining competition of the inhibitor for ATP and/or substrates and for measuring the kinetics of enzyme inhibition. […] Unlike kinase binding assays that measure competition for ATP, the HotSpot Kinase Assay is a functional assay that measures catalytic activity; as such it measures relative functional potency regardless of the mechanism of enzyme inhibition. This assay uses the form of the various enzymes that are easiest to express, which may not necessarily be the form of the enzyme that exist in the cell. (Sometimes the carboxy terminus has been truncated to aid in expression, or, if it is a receptor kinase, the enzyme itself is isolated from the other parts of the receptor that are involved in regulating kinase activity.)
(§2) The reagent used was as follows: Base Reaction buffer; 20 mM Hepes (pH 7.5), 10 mM MgCl2, 1 mM EGTA, 0.01% Brij35, 0.02 mg/ml BSA, 0.1 mM Na3VO4, 2 mM DTT, 1% DMSO. Required cofactors were added individually to each kinase reaction.
(§3) The reaction procedure was as follows: • 1) Substrates were prepared in freshly prepared Reaction Buffer. • 2) Any required cofactors were delivered to the substrate solution above. • 3) Kinase was delivered into the substrate solution and gently mixed. • 4) Compounds were delivered in 100% DMSO into the kinase reaction mixture by Acoustic technology (Echo550; nanoliter range), followed by incubation for 20 min at room temp. • 5) ^33P-ATP was delivered into the reaction mixture to initiate the reaction. • 6) The mixture was incubated for 2 hours at room temperature. • 7) Kinase activity was detected by P81 filter-binding method.

For experiment [2], the target named is T2, IRAK1 (Homo sapiens, UniProt P51617).
T2 construct: purchased Reaction Biology (RBC HotSpot Kinase Assay)
T2 sequence (P51617 whole entry): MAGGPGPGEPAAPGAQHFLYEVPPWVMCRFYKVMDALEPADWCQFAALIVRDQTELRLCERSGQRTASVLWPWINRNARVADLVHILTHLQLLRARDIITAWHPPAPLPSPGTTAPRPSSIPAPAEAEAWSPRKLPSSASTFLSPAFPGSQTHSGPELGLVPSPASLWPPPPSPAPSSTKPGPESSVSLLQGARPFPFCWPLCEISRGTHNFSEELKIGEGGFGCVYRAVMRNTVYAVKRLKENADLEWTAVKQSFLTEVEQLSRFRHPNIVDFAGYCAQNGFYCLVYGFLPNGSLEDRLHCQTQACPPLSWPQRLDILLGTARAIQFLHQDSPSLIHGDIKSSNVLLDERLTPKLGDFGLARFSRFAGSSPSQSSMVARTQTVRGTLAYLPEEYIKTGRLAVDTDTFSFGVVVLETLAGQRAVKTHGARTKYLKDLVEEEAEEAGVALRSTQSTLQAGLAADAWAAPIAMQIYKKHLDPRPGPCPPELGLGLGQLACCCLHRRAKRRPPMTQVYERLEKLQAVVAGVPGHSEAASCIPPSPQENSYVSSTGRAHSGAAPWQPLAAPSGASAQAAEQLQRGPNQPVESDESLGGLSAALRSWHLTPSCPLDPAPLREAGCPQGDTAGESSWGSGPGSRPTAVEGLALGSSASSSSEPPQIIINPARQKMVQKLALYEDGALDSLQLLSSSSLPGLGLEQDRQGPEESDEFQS
The experiment in a line: RBC HotSpot Kinase Assay, IRAK1.
Excerpt: as §1, §2, §3

Experiment [3] deals with T3, IRAK4 (Homo sapiens, UniProt Q9NWZ3).
T3 sequence (Q9NWZ3 1-460): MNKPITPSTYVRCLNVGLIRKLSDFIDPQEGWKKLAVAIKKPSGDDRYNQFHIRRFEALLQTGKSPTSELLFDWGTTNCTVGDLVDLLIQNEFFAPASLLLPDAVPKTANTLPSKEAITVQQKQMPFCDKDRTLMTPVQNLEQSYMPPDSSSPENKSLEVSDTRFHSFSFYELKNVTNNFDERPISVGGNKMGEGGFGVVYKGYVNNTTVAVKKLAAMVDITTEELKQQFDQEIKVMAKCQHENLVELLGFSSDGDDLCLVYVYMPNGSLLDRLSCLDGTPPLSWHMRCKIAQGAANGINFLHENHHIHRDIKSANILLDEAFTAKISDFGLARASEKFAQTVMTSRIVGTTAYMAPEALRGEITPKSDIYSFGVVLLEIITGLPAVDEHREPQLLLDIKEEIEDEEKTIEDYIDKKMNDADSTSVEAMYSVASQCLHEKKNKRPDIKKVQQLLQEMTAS
The experiment in a line: RBC HotSpot Kinase Assay, IRAK4. On the set-up: purchased Reaction Biology (RBC HotSpot Kinase Assay).
Excerpt: as §1, §2, §3

`F[C@H]1CNCC[C@@H]1Nc1cccc(-c2cnc3ccc(-c4cnn(C5CC5)c4)nn23)n1` [Compound 7, 6-(6-(1-cyclopropyl-1 H-pyrazol-4-yl)imidazo[1,2-b]pyridazin-3-yl)-N-((3S,4S)-3-fluoropiperidin-4-yl)pyridin-2-amine]: the IC50 is 4 nM in experiment [1], 284 nM in experiment [2] and 52 nM in experiment [3].
Take `FC(F)n1cc(-c2ccc3ncc(-c4cccc(N[C@@H]5CCCNC5)n4)n3n2)cn1` [Compound 16]: the IC50 in experiment [1] is less than 0.5 nM; in experiment [2], 3060 nM; in experiment [3], 157 nM.
For `Cn1cc(-c2ccc3ncc(-c4cccc(N[C@H]5CCNC[C@@H]5F)n4)n3n2)cn1` [Compound 5, N-((3S,4S)-3-fluoropiperidin-4-yl)-6-(6-(1-methyl-1H-pyrazol-4-yl)imidazo[1,2-b]pyridazin-3-yl)pyridin-2-amine], in that order: 5 nM, 266 nM and 51 nM.
On to `FC(F)n1cc(-c2ccc3ncc(-c4cccc(N[C@H]5CCNC[C@@H]5F)n4)n3n2)cn1` [Compound 6, 6-(6-(1-(difluoromethyl)-1 H-pyrazol-4-yl)imidazo[1,2-b]pyridazin-3-yl)-N-((3S,4S)-3-fluoropiperidin-4-yl)pyridin-2-amine], for which the IC50 in experiment [1] stood at 4 nM; in experiment [2], 296 nM; in experiment [3], 62 nM.
For `FC(F)n1cc(-c2ccc3ncc(-c4cccc(NC5CNCC5(F)F)n4)n3n2)cn1` (stereo not drawn) [Compound 23, 6-(6-(1-(difluoromethyl)-1H-pyrazol-4-yl)imidazo[1,2-b]pyridazin-3-yl)-N-(4,4-difluoropyrrolidin-3-yl)pyridin-2-amine], in that order: 16 nM, 1150 nM and 75 nM.
For `F[C@@H]1CNCC[C@H]1Nc1cccc(-c2cnc3ccc(C4CC4)nn23)n1` [Compound 73, 6-(6-cyclopropylimidazo[1,2-b]pyridazin-3-yl)-N-((3R,4R)-3-fluoropiperidin-4-yl)pyridin-2-amine], in that order: 10 nM, 1830 nM and 292 nM.
For `FC(F)n1cc(-c2ccc3ncc(-c4cccc(N[C@H]5CNC[C@@H]5C(F)(F)F)n4)n3n2)cn1` [Compound 12, 6-(6-(1-(difluoromethyl)-1 H-pyrazol-4-yl)imidazo[1,2-b]pyridazin-3-yl)-N-((3R,4S)-4-(trifluoromethyl)pyrrolidin-3-yl)pyridin-2-amine], in that order: 3 nM, 2060 nM and 128 nM.
`FC1(F)CNCC1Nc1cccc(-c2cnc3ccc(-c4cnn5ncccc45)nn23)n1` (stereo not drawn) [Compound 54, N-(4,4-difluoropyrrolidin-3-yl)-6-(6-(pyrazolo[1,5-b]pyridazin-3-yl)imidazo[1,2-b]pyridazin-3-yl)pyridin-2-amine]: the half-inhibitory concentration (IC50) is less than 0.5 nM in experiment [1], 1690 nM in experiment [2] and 8 nM in experiment [3].
`F[C@H]1CNC[C@@H]1Nc1cccc(-c2cnc3ccc(N4CCCCC4)nn23)n1` [Compound 94, N-((3S,4S)-4-fluoropyrrolidin-3-yl)-6-(6-(piperidin-1-yl)imidazo[1,2-b]pyridazin-3-yl)pyridin-2-amine]: the IC50 was 6 nM in experiment [1], 1050 nM in experiment [2] and 33 nM in experiment [3].
For the compound `CC(C)n1cc(-c2ccc3ncc(-c4cccc(NC5CCC6(CNC6)C5)n4)n3n2)cn1` (stereo not drawn) [Compound 46, N-(6-(6-(1-isopropyl-1H-pyrazol-4-yl)imidazo[1,2-b]pyridazin-3-yl)pyridin-2-yl)-2-azaspiro[3.4]octan-6-amine], the results for the IC50 in experiment [1], in experiment [2] and in experiment [3] were 6 nM, 2180 nM and 985 nM, respectively.
Regarding `FC(F)[C@H]1CNC[C@@H]1Nc1cccc(-c2cnc3ccc(C4CC4)nn23)n1` [Compound 72, 6-(6-cyclopropylimidazo[1,2-b]pyridazin-3-yl)-N-((3R,4S)-4-(difluoromethyl)pyrrolidin-3-yl)pyridin-2-amine], the 50% inhibitory concentration (IC50) in experiment [1] was determined as 1 nM; in experiment [2], 3590 nM; in experiment [3] it was 36 nM.
In the case of `c1ccc(-n2cc(-c3ccc4ncc(-c5cccc(NC6CCNC6)n5)n4n3)cn2)cc1` (stereo not drawn) [Compound 28, 6-(6-(1-phenyl-1H-pyrazol-4-yl)imidazo[1,2-b]pyridazin-3-yl)-N-(pyrrolidin-3-yl)pyridin-2-amine], the IC50 came to 2 nM in experiment [1], 6580 nM in experiment [2] and 2360 nM in experiment [3].
Turning to `COc1cc2ncc(-c3cccc(N[C@@H]4CCCNC4)n3)n2nc1N1CCCC1=O` [Compound 137, (R)-1-(7-methoxy-3-(6-(piperidin-3-ylamino)pyridin-2-yl)imidazo[1,2-b]pyridazin-6-yl)pyrrolidin-2-one], the IC50 in experiment [1] was 13 nM; in experiment [2], more than 10000 nM; in experiment [3] it was 1980 nM.
With `CC(C)n1cc(-c2ccc3ncc(-c4cccc(NC5CC6(CCNC6)C5)n4)n3n2)cn1` (stereo not drawn) [Compound 39, N-(6-(6-(1-isopropyl-1H-pyrazol-4-yl)imidazo[1,2-b]pyridazin-3-yl)pyridin-2-yl)-6-azaspiro[3.4]octan-2-amine], the IC50 in experiment [1] is 8 nM; in experiment [2], 2330 nM; in experiment [3], 321 nM.
For `Cn1cc(-c2ccc3ncc(-c4cccc(N[C@@H]5CCCNC5)n4)n3n2)cn1` [Compound 15, (R)-6-(6-(1-methyl-1H-pyrazol-4-yl)imidazo[1,2-b]pyridazin-3-yl)-N-(piperidin-3-yl)pyridin-2-amine], in that order: less than 0.5 nM, 226 nM and 13 nM.
For `FC(F)(F)[C@H]1CNC[C@@H]1Nc1cccc(-c2cnc3ccc(-c4cnn(C5CC5)c4)nn23)n1` [Compound 13, 6-(6-(1-cyclopropyl-1 H-pyrazol-4-yl)imidazo[1,2-b]pyridazin-3-yl)-N-((3R,4S)-4-(trifluoromethyl)pyrrolidin-3-yl)pyridin-2-amine], the IC50 in experiment [1] came to 2 nM; in experiment [2], 1840 nM; in experiment [3], 106 nM.
For `CNc1ccc2ncc(-c3cccc(N[C@H]4CNC[C@@H]4F)n3)n2n1` [Compound 89, 3-(6-(((3S,4S)-4-fluoropyrrolidin-3-yl)amino)pyridin-2-yl)-N-methylimidazo[1,2-b]pyridazin-6-amine], the results for the IC50 in experiment [1], in experiment [2] and in experiment [3] were 5 nM, 8050 nM and 58 nM, respectively.
As to `CC(C)n1cc(-c2ccc3ncc(-c4cccc(NC5CCNC5)n4)n3n2)cn1` (stereo not drawn) [Compound 27, 6-(6-(1-isopropyl-1H-pyrazol-4-yl)imidazo[1,2-b]pyridazin-3-yl)-N-(pyrrolidin-3-yl)pyridin-2-amine], the figures for the IC50 in experiment [1], in experiment [2] and in experiment [3] were 5 nM, 1620 nM and 609 nM, respectively.
As to `F[C@H]1CNC[C@@H]1Nc1cccc(-c2cnc3ccc(Oc4ccccc4)nn23)n1` [Compound 88, N-((3S,4S)-4-fluoropyrrolidin-3-yl)-6-(6-phenoxyimidazo[1,2-b]pyridazin-3-yl)pyridin-2-amine], the figures for the IC50 in experiment [1], in experiment [2] and in experiment [3] were 22 nM, 7240 nM and 959 nM, respectively.
